Data as given in patent US12053480B2, “Methods and pharmaceutical compositions for treating peripheral demyelinating diseases” (INSERM (INSTITUT NATIONAL DE LA SANTE ET DE LA RECHERCHE …, priority 2015, dated 2024).

Key:
VDAC1 [1] = molecular target: T1, VDAC1 (Mus musculus, UniProt Q60932); test: Mitochondrial calcium imaging (mito-GCaMP2, multiphoton) in mSC of mouse sciatic nerve, nerve crush model; assay type: in vivo; settings: for mSC mitochondria calcium concentration: non-crushed nerves, two hours after injections, compared to vehicle injection; for mitochondrial calcium release in mSC after nerve crush: mito-GCaMP2, VDAC1 silenced or drug given before crush
T1 construct: strongly expressed in mSC mitochondria; from tissue; host or cells: myelinating Schwann cells (mSC) of the sciatic nerve of living mice (wild type; db/db and +/db in A10)
Method: (§1) Mice were anesthetized with isoflurane inhalation and placed under a Stemi2000 microscope (Zeiss). Incision area was shaved and cleaned using betadine solution. After incision, the gluteus superficialis and biceps femoris muscles were separated to reveal the cavity traversed by the sciatic nerve. The nerve was lift out using spatula and a thin glass needle filled with viral solution (8 μl) was introduced into the nerve with a micromanipulator. This solution was injected over 30 min with short pressure pulses using a Picospritzer III (Parker Hannifin) coupled to a pulse generator. After injection, the nerve was replaced into the cavity, the muscles were readjusted, and the wound was closed using clips (for further details see Gonzalez et al., 2014^3).
(§2) TRO19622 drug (Tocris bioscience, Ref. 2906) was diluted in ethanol to 20 mM and then, the solution was diluted in sterile PBS to 20 μM. TRO19622 treatments were realized by 3 mg/kg intraperitoneal (IP) injections of 20 mM solution or by intra sciatic nerve injections of 2 μl of drug solution 2 μM using a Hamilton syringe or a glass needle in sterile conditions 30 minutes before multiphoton image acquisitions or immunohistochemistry and demyelination studies respectively. Methyl jasmonate drug (Sigma-Aldrich, Ref. 392707) was diluted in 1 ml of sterile PBS to 1M or 3M. Methyl jasmonate treatments were realized by intra sciatic nerve injections of 1 μl of drug solution using a glass needle and micromanipulator in sterile conditions following the same virus injections procedure (see in vivo virus injection in the sciatic nerve method) two hours before multiphoton image acquisition. […] All drug concentrations were previously evaluated by Bordet et al, 2007^5; Goldin et al, 2008^6; Sharov et al, 2007^7.
(§3) First injected mouse was anesthetized with 5% of isoflurane a 1.5% of oxygen into the anesthesia system box (World Precision Instruments, Ref. EZ-B800) for 5 minutes. Anesthesia controls were realized^8. Then, mouse was placed in anesthesia mask and the incision area was shaved and cleaned with betadine and ethanol 70% solution. Incision was realized using a scalpel and the skin was retracted using forceps in order to expose the gluteus superficialis and bleeps femoris muscles. Next, the connective tissue that connects both muscles was cut and the sciatic nerve was gently lifted out using a spatula. A flexible bridge was slide below sciatic nerve and it was placed into a plastic first pool fixed to the bridge. Mouse was placed under the multiphoton microscope, the bridge was fixed using magnetic brackets to avoid physiological movement and mouse legs were fixed using clippers. Microscope dark box temperature is controlled to 37° C. during all time-lapse imaging. Finally, a second pool was fixed to the first pool using a drop of agarose low melting 3% (Promega, Ref. V2111) in Leibovitz's L15 medium (Gibco Life Technologies) and filled with deionized water to immerse the objectives 20× or 63× (Carl Zeiss Microscopy).
(§4) All time-lapse images were obtained with a multiphoton microscope Zeiss LSM 7 MP OPO. Mitochondria motility images were acquired by time-lapse recording of one image every five minutes during five hours at 920 nm. GCaMP2 and SypHer probe images were acquired by time-lapse recording of one image every fifteen minutes during five hours at 985 nm. Images were acquired to constant 1% of laser intensity to 100 msec of acquisition time with 512×512 resolution and 10 images of z-stack of 20 μm. Images were saved in Zeiss .czi format and processed using Image J program. For further details see Gonzalez et al., 201X^8
(§5) To characterize mitochondria physiology during the demyelination process we combined two in vivo methods. We used the nerve crush model to reliably induce demyelination in the mouse sciatic nerve and a viral approach^19 allowing the expression of different fluorescent probes selectively into mitochondria of myelinating Schwann cells (mSC) in mouse sciatic nerve.

[2] = tested on: phospho-ERK1/2, phospho-p38, phospho-JNK and phospho-c-jun; test: Western blot of demyelination signaling pathways in sciatic nerve after crush or MJ; assay type: in vivo, mouse; settings: nerves not crushed; 4 or 12 hours after treatment
Method: as §2

VDAC1 [3] = molecular target: T1, VDAC1; test: Cytoplasmic calcium imaging (GCaMP2, multiphoton) in mSC of mouse sciatic nerve; assay type: in vivo; settings: for presence of cytoplasmic calcium in mSC after crush: cytoplasmic GCaMP2, after nerve crush
Method: as §1, §2, §3, §4
as §5, with “nerve. […]” for “nerve.”

mSC mitochondria [4] = test: Mitochondrial motility imaging (mito-dsRed2) in mSC of mouse sciatic nerve; assay type: in vivo; settings: for loss of mitochondrial motility after nerve crush: 5 hours after nerve injury, TRO19622 30 minutes before crush
Method: as §1, §2, §3
as §4, with “Images were saved in Zeiss .czi format and processed using Image J program. For further details see Gonzalez et al., 201X^8” left out

[5] = tested on: phospho-bcl2, cleaved caspase-3; settings: after MJ treatment
Method: To investigate the signaling pathways induced by mitochondrial calcium release, sciatic nerves were treated with vehicle or TRO19622 before crush or with MJ without crush and phosphorylation-activated pathways were determined by western blot 4 hours or 12 hours after nerve crush or MJ treatment. […] While it is known that SC demyelination is not due to cell death but to a dedifferentiation process, we nevertheless checked mitochondria-related cell death factors in crushed or MJ treated nerves.

mSC mitochondria [6] = test: Mitochondrial pH imaging (mito-SypHer) in mSC of mouse sciatic nerve; assay type: in vivo
Method: as §1, §2
First injected mouse was anesthetized with 5% of isoflurane a 1.5% of oxygen into the anesthesia system box (World Precision Instruments, Ref. EZ-B800) for 5 minutes. Anesthesia controls were realized^8. Then, mouse was placed in anesthesia mask and the incision area was shaved and cleaned with betadine and ethanol 70% solution. […]

phospho-c-jun = test: Immunohistochemistry of nuclear phospho-c-jun in mSC after nerve crush or MJ; assay type: in vivo, mouse; settings: for nuclear phospho-c-jun in mSC after nerve crush: immunohistochemistry, TRO19622 30 minutes prior crush
Method: The dissected nerve was washed in L15 medium, fixed in Zamboni's fixative (Stefanini et al., 1967^4) for 10 min at room temperature, washed in PBS, and incubated in successive glycerol baths (15, 45, 60, 66% in PBS) for 18 to 24 h each before freezing at −20° C. The nerves were cut in small pieces in 66% glycerol and the perineurium sheet removed. Small bundles of fibers were teased in double-distilled water on Superfrost slides, dried overnight at room temperature, and the slides stored at −20° C. For immunostaining, the teased fibers were incubated for 1 h at room temperature in blocking solution (10% goat serum, 0.2% TritonX100, and 0.01% sodium azide in PBS). Then, the samples were then incubated with anti-ECCD2 primary mouse antibody (1/100, BD biosciences, Ref. 610181), anti-phosphoS63-c-jun primary mouse antibody (1/200, BD Biosciences, Ref. 558036), anti-c-jun primary mouse antibody (1/200, BD Biosciences, Ref. 610326), anti-VDAC primary rabbit antibody (1/100, Cell Signaling, Ref. 4866) or/and MitoTracker Red (1/1000, Molecular Probes, Ref. M7515) in blocking solution overnight at 4° C. The next day, the samples were washed in PBS and incubated for 1 h at room temperature with secondary donkey antibodies coupled to Alexa488, Alexa 594 or Alexa647 (1/1600, Molecular probes) and TO-PRO-3 iodide (50 μM, Invitroge, Ref. T3605). Finally the samples were washed in PBS and mounted in Immu-mount (Thermo Scientific). Images were acquired at room temperature using a 20× or 40× objective, a Zeiss confocal microscope LSM710, and its associated software.
as §2
To go further we also selectively silenced VDAC1 in mSC and measured the expression level of nuclear phospho-c-jun by immunohistochemistry after nerve crush. […]

[7] = tested on: myelinating Schwann cells; test: mSC demyelination morphology (confocal microscopy) four days after nerve crush; assay type: in vivo, mouse; settings: for number of myelinating cell remaining after crush: four days after crush
Method: as §1, §2
Finally we also investigated the demyelination using typical defects induced in the cellular morphology of mSC. Nerves expressing control or VDAC1 shRNAs were crushed to induce demyelination and four days later, when demyelination is maximal, we analyzed the morphology of VDAC1-silenced mSC using confocal microscopy as described previously^19. mSC display long homogenous noodle-like morphology with a regular diameter but during demyelination, they acquire a heterogeneous morphology often alterning large structures (myelin ovoids) with thin processes and their extremities split in fine extensions.

T1 sequence (Q60932 14-296): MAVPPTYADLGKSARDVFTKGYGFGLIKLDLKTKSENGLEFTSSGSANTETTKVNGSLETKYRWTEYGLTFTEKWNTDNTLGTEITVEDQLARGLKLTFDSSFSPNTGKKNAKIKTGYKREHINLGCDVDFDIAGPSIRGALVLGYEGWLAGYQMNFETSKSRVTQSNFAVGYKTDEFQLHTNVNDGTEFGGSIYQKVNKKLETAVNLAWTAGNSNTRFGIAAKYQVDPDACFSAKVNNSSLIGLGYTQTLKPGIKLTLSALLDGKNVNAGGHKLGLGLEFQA

Compound | mSC mitochondria calcium concentration (VDAC1 [1]) | mSC mitochondria calcium concentration (VDAC1 [1]; listed as methyl jasmonate) | phosphorylation-activated pathways and phospho-c-jun [2] | calcium presence in the cytoplasm (VDAC1 [3]; MJ treatment, non-crushed nerves) | mitochondrial motility (mSC mitochondria [4]; without crush) | phospho-bcl2 and cleaved caspase-3 levels [5] | mitochondrial pH (mSC mitochondria [6]; non-crushed nerves) | nuclear phospho-c-jun (phospho-c-jun; nerves treated with MJ) | number of demyelinating cells ([7]; non-crushed sciatic nerves) | mitochondrial calcium release in mSC after nerve crush (VDAC1 [1]) | presence of cytoplasmic calcium in mSC after crush (VDAC1 [3]) | loss of mitochondrial motility after nerve crush (mSC mitochondria [4]) | nuclear phospho-c-jun in mSC after nerve crush (phospho-c-jun) | number of myelinating cell remaining after crush [7] | mitochondrial calcium release in mSC after nerve crush (VDAC1 [1]; listed as VDAC shRNA3) | part of the calcium appearing in the cytoplasm after nerve crush that is not abolished (non-mitochondrial origin) (VDAC1 [3]; after nerve crush with VDAC1 silenced or blocked) [%] | changes induced by nerve crush in mitochondrial motility not abrogated (mSC mitochondria [4]; after nerve crush) [%] | changes induced by nerve crush in mitochondrial pH not abrogated (mSC mitochondria [6]; after nerve crush) [%]
CC/C=C\CC1C(=O)CCC1CC(=O)OC (centres unmarked) [MJ, methyl jasmonate] | sharply decreased | induced mitochondrial calcium release | significant increase | increased | decreased | Neither phospho-bcl2 nor cleaved caspase-3 levels were increased | increase | robust increase | significant increase | – | – | – | – | – | – | – | – | –
VDAC1 shRNA2: VDAC1 shRNA sequence 2 GTTGGCTATAAGACGGATGAACT (Sigma-Aldrich, Ref. #TRCN0000012391), expressed from AAV vector (expressed from AAV vector) | – | – | – | – | – | – | – | – | – | significantly reduced | more modest | significantly prevented | strong reduction | significant increase | – | – | – | –
VDAC1 shRNA3: VDAC1 shRNA sequence 3 ACCAGGTATCAAACTGACGTTCT (Sigma-Aldrich, Ref. #TRCN0000012392), expressed from AAV vector (expressed from AAV vector) | – | – | – | – | – | – | – | – | – | completely inhibited | strongly reduced | significantly prevented | strong reduction | significant increase | completely abolished | 13 | 20 | 12
